Experimental data reported in PMC4891657, “Orexin 2 Receptor Antagonism is Sufficient to Promote NREM and REM Sleep from Mouse to Man” (Scientific Reports, 2016).
Several values for one entry are separate records, joined by “and”; a condition that tells them apart may be missing. Equal values may be shown once. Entries after “also recorded” stand apart in the source; their conditions may differ.

Tests used:
[1] = system: cataplexy; experiment: Food-elicited cataplexy test (FECT); format: in vivo, dog; conditions: dogs, 20 mg/kg, 1 hour after administration
Method: A standard measure for quantifying narcolepsy with cataplexy in dogs is the food-elicited cataplexy test (FECT).
The FECT was performed essentially as described previously. After a 2-day vehicle run-in period, female dogs (n = 8; Marshall Farms) were treated with MK-1064 (20 mg/kg) or vehicle in a 1-day vehicle x 2-day drug crossover design. Daytime FECTs[32][43][44] with simultaneous video and electrocorticography (ECoG), electromyography (EMG), and electrooculography (EOG) recordings were conducted 1 hour post-dose. Following release into the test room, dogs were remotely monitored while consuming 10 evenly spaced, approximately 1-inch[2] balls of wet dog food (Pedigree® chunk beef). Video and ECoG/EOG/EMG recordings were evaluated for any signs of cataplexy (e.g., collapse, EMG attenuation, sudden-onset REM sleep; see Kushida et al.[43]) and the time needed to consume all 10 balls of food.

[2] = Safety and tolerability, PSG study; format: in vivo, human
Source text: In the ascending single-dose study, 52 AEs were considered to be related to the study drug, the most common of which was somnolence/sleepiness, drowsiness, and tiredness (15 of 16 subjects dosed with MK-1064), consistent with the intended pharmacological activity. […] In the PSG study, 13 of the 20 subjects enrolled reported ≥1 clinical AE. Of 24 clinical AEs reported, 18 were considered to be related to study treatment, all of which were mild or moderate in intensity. One report of transient sleep paralysis following MK-1064 250 mg was noted, while the most common MK-1064-related AEs were headache (3 subjects), nightmares (2 subjects) and dizziness (1 subject) (Supplementary Table 2).
Twenty healthy male subjects between the ages of 18 and 45 years were recruited to a double-blind, randomized, 4-period, crossover study to evaluate the effects of single doses of MK-1064. Subjects were without a history of physical or mental illnesses, had no history of sleep abnormalities, and were not regularly taking medication. Subject inclusion required a sleep score ≤6 on the Pittsburgh Sleep Quality Index at the time of screening, and qualified subjects underwent a PSG screening prior to randomization to exclude those with latent sleep disturbances. In each of the 4 treatment periods, subjects were randomized to receive single doses of MK-1064 (50, 120, or 250 mg) or matching placebo according to a balanced crossover design (see Fig. 5). Briefly, 20 subjects were randomized to 4 panels (n = 5 each). Each panel then received each of the four treatments (placebo, 50, 120, 250 mg MK-1064) in 4 different study periods where each period allocated the 4 different treatments to the 4 different subject panels. Progression through each period rotated the 4 different treatments among the subject panels such that each panel ultimately received all 4 treatments. In all 4 study periods, subjects were admitted for a pre-dose habituation night. On the following treatment night, subjects were administered a single dose of study medication in a blinded manner approximately 1 hour before their habitual bedtime. Study medication was administered following a ≥4-hour fast. Dosing in different treatment periods was separated by a washout of at least 7 days for each subject. PSG recording commenced at 1 hour post-dose and continued during undisturbed sleep for 8 hours overnight. Visual scoring of each 30-sec epoch of PSG recording to wake or one of four sleep states (S1, S2, SWS, collectively referred to as NREM, and REM) was performed according to standard and established Rechtschaffen and Kales criteria. Obtained scores were then used to calculate efficacy assessment measures including latency to persistent sleep (LPS) (min), wake after sleep onset (WASO) (min), sleep efficiency (SE) (%), and total sleep time (TST) (min). LPS is the time from lights off to the first epoch of 20 consecutive epochs of non-wake stage; WASO is the time in wake stage between the onset of persistent sleep and the time of lights on; and SE is the proportion of time between lights off and lights on that was spent in sleep. In addition to efficacy parameters, latency to REM (LREM) (min), equal to the time from lights off to the first epoch of REM, and the proportion (%) of TST spent in NREM and REM were calculated. Estimation of the effects of treatment on PSG endpoints relative to placebo, including the calculation of confidence intervals and p-values were done using a mixed-effect statistical model typical for crossover studies. Specifically, logarithm of an analyzed endpoint represented the response variable, and treatment dose, treatment period, and carryover effect were fixed-effect explanatory variables. Subject effect was the random effect with the within-subject covariance assumed to be of the unstructured type. […] SAS/STAT® Version 9.3 software (SAS Institute, Cary NC) was used in the analysis.

[3] = target: T1, OX2R (Homo sapiens, UniProt O43614); format: in vivo, transgenic rats expressing human Hcrtr2; design: from tissue; host or cells: brain tissue lysate of male transgenic rats expressing human Hcrtr2 cDNA under the rat enolase promoter
T1 sequence (O43614 1-444): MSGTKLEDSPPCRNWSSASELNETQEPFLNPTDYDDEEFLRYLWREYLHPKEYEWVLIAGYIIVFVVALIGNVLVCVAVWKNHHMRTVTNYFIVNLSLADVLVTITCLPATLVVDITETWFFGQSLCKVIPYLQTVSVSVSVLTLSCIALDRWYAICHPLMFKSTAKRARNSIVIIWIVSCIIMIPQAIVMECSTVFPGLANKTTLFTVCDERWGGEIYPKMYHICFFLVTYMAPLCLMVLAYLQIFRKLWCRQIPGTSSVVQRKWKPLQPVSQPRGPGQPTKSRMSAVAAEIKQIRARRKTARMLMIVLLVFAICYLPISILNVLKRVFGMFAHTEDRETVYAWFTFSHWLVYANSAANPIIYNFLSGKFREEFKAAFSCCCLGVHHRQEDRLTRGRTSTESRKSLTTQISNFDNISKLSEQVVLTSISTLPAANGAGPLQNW
Source text: OX2R occupancy in transgenic rats expressing human Hcrtr2 cDNA via the rat enolase promoter in radioligand-binding displacement assays have been described previously. […] Normalized curves where the maximum occupancy value was defined as 100% relative to maximal observed plasma were constructed by fitting data to a one-site binding (hyperbola) curve (GraphPad Prism® v. 6.04, San Diego, CA, USA).

[4] = rats, 2 hours following treatment vs vehicle

COc1ccc(CNC(=O)c2cc(-c3cncc(Cl)c3)cnc2-c2ccccn2)nc1OC [MK-1064, 5″-chloro-N-[(5,6-dimethoxypyridin-2-yl)methyl]-2,2′:5′, 3″-terpyridine-3′-carbo xamide]
cataplectic episodes in FECT [1]: no cataplectic episodes; also recorded: cataplexy was not observed | mean time to complete the FECT ([1]; not significantly different from vehicle): 37.8 s | MK-1064-related AE dizziness [2]: 1 subject | MK-1064-related AE headache [2]: 3 subjects | MK-1064-related AE nightmares [2]: 2 subjects | clinical AEs reported [2]: 24 | reports of transient sleep paralysis ([2]; 250 mg): One | subjects reporting ≥1 clinical AE ([2]; 20 subjects enrolled, crossover 50, 120, 250 mg and placebo): 13 subjects | clinical AEs considered to be related to study treatment ([2]; all mild or moderate): 18 | OX2R occupancy at which significant reductions in active wake were observed ([3]; in vivo): 94% and 97% | OX2R occupancy at which changes in REM sleep occurred [3, 4]: 94% | OX2R occupancy at which no significant reduction in active wake was observed [3, 4]: 89% | OX2R occupancy at which significant SWS changes were induced [3, 4]: 97%
